Test results published in article PMC9193972, “Candidate Chemosensory Genes Identified in the Adult Antennae of Sympiezomias velatus and Binding Property of Odorant-Binding Protein 15” (Frontiers in Physiology, 2022).

What was measured:
recombinant SvelOBP15 [1] = experiment: Fluorescence competitive binding assay with 1-NPN as fluorescent reporter; parameters: species or system Sympiezomias velatus; settings: for Ki: calculated from IC50, mean ± SE, read-out: Ki (dissociation constant); for Ki / IC50: 1-NPN 2 μmol/L; for IC50: competitor 2 to 20 μmol/L, concentration halving the fluorescence of 1-NPN; for binding to SvelOBP15 (in words): competitive binding, competitor up to 20 μmol/L
Experimental: The whole ORF of SvelOBP15 was successfully validated by RT-PCR and Sanger sequencing and then synthesized (without the signal peptide-encoding region) by Sangon Biotech (Shanghai, China). It was first cloned into the pGEM-T cloning vector (Promega, Madison, United States) and then subcloned into the expression vector pET-30a(+) (Novagen, Darmstadt, Germany). Recombinant SvelOBP15 was expressed in Escherichia coli Transetta (DE3) following induction with 0.5 mM isopropyl-b-D-thiogalactopyranoside (IPTG) after the culture reached an OD600 of 0.4–0.6. Incubation was continued at 37°C with shaking at 220 rpm for an additional 6 h. […] Denaturation and renaturation were performed following previously reported methods ([Liu et al., 2012]). The protein was purified using a HisTrap HP prepacked column (GE Healthcare, Pittsburgh, United States) according to the manufacturer’s instructions, and recombinant enterokinase (rEK) (GenScript Biology Company, Nanjing, China) was used to remove the His-tag. After running the digested protein back through the HisTrap HP prepacked column, the tag-free protein was obtained in the flow-through fraction. Proteins were visualized at all stages of purification by SDS-PAGE.
(§1) Fluorescence competitive binding assays were performed as reported previously ([Liu et al., 2015]). This assay was conducted on a Hitachi F-7000 fluorescence spectrophotometer with a 1-cm light path quartz cuvette and 10-nm slits for both excitation and emission. The excitation wavelength was 337 nm, and the emission spectrum was recorded between 390 and 460 nm. First, to determine the binding affinities of N-phenyl-1-naphthylamine (1-NPN) to OBP15, the fluorescence intensity values at maximum fluorescence emissions were plotted against the free ligand concentration by titrating increasing concentrations of 1-NPN. The binding curves were linearized using Scatchard plots. Next, competitive binding assays of OBP15 to 33 chemicals (Supplementary Table S2) of different structural characteristics were carried out using 1-NPN as the fluorescent reporter at a concentration of 2 μmol/L, whereas the concentration of each competitor varied from 2 to 20 μmol/L. These chemicals included the volatile components of host plants such as peanut, elm, maize, cotton, etc. ([Hammack, 2001]; [Cardoza et al., 2002]; [Ngumbi et al., 2009]; [Cheng et al., 2010]) and aggregation pheromone components of curculionids ([Gries et al., 1993]; [Hallett et al., 1993]; [Eller et al., 1994]; [Szendrei et al., 2011]). Chemicals were purchased from Sigma-Aldrich (St. Louis, United States) (purity >95% or 90%). Based on the assumption that the activity of proteins was 100% with a saturation stoichiometry of 1:1 (protein: ligand), the dissociation constants (Ki) of the competitors were calculated from the IC50 values (the concentrations of the ligands halving the fluorescence of 1-NPN) using the following equation:
Ki = [IC50]/(1 + [1-NPN]/K1-NPN) ([Ban et al., 2003]).Where [1-NPN] is the free concentration of 1-NPN and K1-NPN is the dissociation constant of the complex protein/1-NPN.
Ki values of various compounds (mean ± SE) were subjected to one-way ANOVA followed by Tukey post hoc test for mean comparison using SPSS Statistics 20.0 (SPSS Inc., Chicago, United States).

recombinant SvelOBP15 [2] = experiment: 1-NPN titration (binding curve, Scatchard plot); parameters: species or system Sympiezomias velatus; settings: titration with increasing 1-NPN, read-out: dissociation constant of 1-NPN
Experimental: as §1, with “Based on the assumption that the activity of proteins was 100% with a saturation stoichiometry of 1:1 (protein: ligand), the dissociation constants (Ki) of the competitors were calculated from the IC50 values (the concentrations of the ligands halving the fluorescence of 1-NPN) using the following equation:” left out

AquaOBP4 = tested on: AquaOBP4; parameters: method as in Wang et al., 2017; settings: ref Wang et al., 2017; cited from earlier work
SzeaOBP28 = tested on: SzeaOBP28; parameters: method as in Zhang Y. et al., 2019; settings: ref Zhang Y. et al., 2019; cited from earlier work

Row | Compound | IC50 (recombinant SvelOBP15 [1]) [µM] | other results
1 | C=CC(C)(O)CCC=C(C)CCC=C(C)C (mixture of isomers) [Nerolidol] | – | Ki (recombinant SvelOBP15 [1]): 12.9 ± 0.43 µM
2 | Cc1cccc2ccccc12 [1-Methylnaphthalene] | > 20 | –
3 | c1ccc(Nc2cccc3ccccc23)cc1 [1-NPN, N-phenyl-1-naphthylamine] | – | Kd (recombinant SvelOBP15 [2]): 4.68 ± 0.16 µM
4 | C=CC(O)CCCCC (stereo not shown) [1-Octen-3-ol] | > 20 | –
5 | CC(=O)c1ccc(C)c(C)c1 [3',4'-Dimethylacetophenone] | > 20 | –
6 | CCCCC(O)C(C)CC (stereo not shown) [3-Methyl-4-octanol] | > 20 | –
7 | CCc1ccc(C(C)=O)cc1 [4-Ethylacetophenone] | > 20 | –
8 | CCCCC(O)C(C)CCC (stereo not shown) [4-Methyl-5-nonanol] | > 20 | –
9 | CCCCC(=O)C(C)CCC (stereo not shown) [4-Methyl-5-nonanone] | > 20 | –
10 | O=C1CCCC1C1CCCC1 (stereo not shown) [(1,1`-Bicyclopentyl)-2-one] | > 20 | –
11 | C=C1CC/C=C(\C)CC[C@@H]2[C@@H]1CC2(C)C [(-)-trans-Caryophyllene] | > 20 | –
12 | CC(C)=CCC/C(C)=C/CO [(E)-3,7-Dimethyl-2,6-octadien-1-ol] | > 20 | –
13 | CC(C)=CCC/C(C)=C/CC/C(C)=C/CO [(E,E)-Farnesol] | 9.26 ± 0.43 | Ki (recombinant SvelOBP15 [1]): 7.36 ± 0.36 µM
14 | O=Cc1ccccc1 [Benzalehyde] | > 20 | –
15 | CC(C)COC(=O)CCCCC(=O)OCC(C)C [Diisobutyl adipate] | > 20 | –
16 | CC(C)COC(=O)c1ccccc1C(=O)OCC(C)C [Diisobutyl phthalate] | 15.8 ± 0.42 | Ki (recombinant SvelOBP15 [1]): 12.6 ± 0.34 µM; binding to AquaOBP4 (in words) (AquaOBP4): weakly bound
17 | CCCCCCCCCCCC [Dodecane] | > 20 | binding to SvelOBP15 (in words) (recombinant SvelOBP15 [1]): cannot be bound
18 | CC(C)=CCC/C(C)=C/C(=O)O [Geranic acid] | > 20 | –

Row | Compound | IC50 (recombinant SvelOBP15 [1]) [µM] | other results
19 | C=C(C)[C@H]1CC=C(C)CC1 [Limonene] | 14.7 ± 0.53 | Ki (recombinant SvelOBP15 [1]): 11.7 ± 0.47 µM
20 | C=CC(C)(O)CCC=C(C)C (stereo not shown) [Linalool] | > 20 | –
21 | COC(=O)c1ccccc1O [Methyl salicylate] | > 20 | –
22 | CCCCCCCCC=O [Nonanal] | > 20 | –
23 | CCCCCCCCCCCCCCCC(=O)O [Palmitic acid] | > 20 | –
24 | CCCCCCCCCCCCCCC [Pentadecane] | > 20 | binding to SvelOBP15 (in words) (recombinant SvelOBP15 [1]): cannot be bound
25 | CCCCCCCCCCCCCC [Tetradecane] | > 20 | binding to SvelOBP15 (in words) (recombinant SvelOBP15 [1]): cannot be bound
26 | CC/C=C\CCO [Z-3-hexen-1-ol] | > 20 | –
27 | COCCOC(=O)c1ccccc1C(=O)OCCOC [bis (2-methoxyethyl) phthalate] | – | binding to SzeaOBP28 (in words) (SzeaOBP28): exhibited a binding affinity
28 | CC/C=C\CCOC(C)=O [cis-3-Hexenyl acetate] | > 20 | –
29 | CCCCCCCCCCCCCCCC [n-Hexadecane] | > 20 | binding to SvelOBP15 (in words) (recombinant SvelOBP15 [1]): cannot be bound
30 | CCC/C=C/COC(C)=O [trans-2-Hexenyl acetate] | > 20 | –
31 | CCC/C=C/C=O [trans-2-Hexenyl aldehyde] | > 20 | –
32 | C=C/C(C)=C/C/C=C(\C)CCC=C(C)C [α-Farnesene] | > 20 | –
33 | C=C/C(C)=C/CC=C(C)C [β-Ocimene] | > 20 | –
34 | (+)-α-Pinene | > 20 | –
35 | (+)-β-Pinene | > 20 | –
